Entries after “also recorded” stand apart in the source; their conditions may differ.

Experimental findings from patent US20220288048A1, “PIMAVANSERIN FOR TREATING SCHIZOPHRENIA OR FOR TREATING PSYCHOSIS SECONDARY TO NEURODEGENERATIVE DISORDERS OR DEPRESSIVE DISORDER” (ACADIA Pharmaceuticals Inc., priority 2019, published 2022) are described below.

In this series the test system is adult schizophrenia patients. Nature of the series: 6-week adjunctive pimavanserin study: safety and adverse events. The format is in vivo, human. The protocol:
The effect of pimavanserin as an adjunctive treatment in adult schizophrenia patients with a persistent inadequate response (i.e., partial responders) to their existing antipsychotic therapy was tested. 396 patients with moderate-to-severe psychotic symptoms were randomized to receive either pimavanserin or placebo added to existing antipsychotic treatment.
Patients were administered a daily dose of pimavanserin or a placebo for six weeks. The dose started at 20 mg and could be adjusted to 34 mg or 10 mg between weeks 1 and 3. The majority of patients (56%) completed the study at the highest dose level.
The safety of the pimavanserin arm was similar to placebo, with no new signals observed. […] The overall number of SAEs and AEs leading to discontinuation was low. The most commonly reported AEs leading to discontinuation of treatment were from the psychiatric disorders system and seen in the active arm.

On to `CC(C)COc1ccc(CNC(=O)N(Cc2ccc(F)cc2)C2CCN(C)CC2)cc1` [Pimavanserin, N-(4-Fluorophenylmethyl)-N-(1-methylpiperidin-4-yl)-N′-(4-(2-methylpropyloxy)phenylmethyl)carbamide], for which, where the note is “6-week study”, the “Patients who completed the study” value is listed as “Approximately 88%”; the QT prolongation result is reported as “Minimal QT prolongation”; the “Vital signs, weight, metabolic syndrome, and extrapyramidal symptoms compared to adjunctive placebo” value is on record as “did not result in clinically significant differences; also recorded: No effect was seen”. In addition, under “Safety Analysis Set, N = 198”, the “Any Related Serious Treatment-Emergent Adverse Event, Events n” value came to 2; the “Any Related Serious Treatment-Emergent Adverse Event, Subjects (%)” value turned out to be 0.5%; the “Any Related Serious Treatment-Emergent Adverse Event, Subjects n” value came out at 1; the “Any Related Treatment-Emergent Adverse Event, Events n” value is 46. Moreover, for the setting “Safety Analysis Set, N = 198”, the “Any Related Treatment-Emergent Adverse Event, Subjects (%)” value stood at 16.7%; the “Any Related Treatment-Emergent Adverse Event, Subjects n” value is recorded as 33; the “Any Serious Treatment-Emergent Adverse Event, Events n” value is given as 3; the “Any Serious Treatment-Emergent Adverse Event, Subjects (%)” value was determined as 1.0%. Moreover, where the note is “Safety Analysis Set, N = 198”, the “Any Serious Treatment-Emergent Adverse Event, Subjects n” value came to 2; the “Any Treatment-Emergent Adverse Event Leading to Discontinuation or Study Termination, Events n” value is 7; the “Any Treatment-Emergent Adverse Event Leading to Discontinuation or Study Termination, Subjects (%)” value was found to be 2.5%; the “Any Treatment-Emergent Adverse Event Leading to Discontinuation or Study Termination, Subjects n” value amounted to 5. Besides, for the setting “Safety Analysis Set, N = 198”, the “Any Treatment-Emergent Adverse Event, Events n” value is reported as 142; the “Any Treatment-Emergent Adverse Event, Subjects (%)” value is on record as 40.4%; the “Any Treatment-Emergent Adverse Event, Subjects n” value was found to be 80. For the setting “Safety Analysis Set, N = 198, listed as pimavanserin”, the “Any Serious Treatment-Emergent Adverse Event, Subjects (%)” value stood at 1%. Under “pimavanserin group, 6-week study”, the “Adverse events reported in at least 5% of patients” value was “headache, somnolence, and insomnia”.
